{
  "source": "patent US20150352111A1",
  "about": "“Therapeutic Indications of Kinase Inhibitors” (Pulmokine, Inc., priority 2013, published 2015)",
  "origin": "cited, not measured here",
  "key": {"[1]": {"tested_on": "patients with PAH", "conditions": "cited from earlier work"}, "[2]": {"tested_on": "rat MCT model of PAH", "conditions": "cited from earlier work"}, "[3]": {"tested_on": "phospho-ERK1/2", "conditions": "rat MCT model; cited from earlier work"}, "[4]": {"tested_on": "PASMCs", "conditions": "cited from earlier work"}},
  "data": [
    {"smiles": "Cc1ccc(NC(=O)c2ccc(CN3CCN(C)CC3)cc2)cc1Nc1nccc(-c2cccnc2)n1", "note": "[imatinib]", "values": [
      {"measurement": "primary efficacy parameter (6MWD) compared with placebo", "setting": "[1]; 6 month period, US 2011/0190313", "result": "did not improve"},
      {"measurement": "6-min walk distance", "setting": "[1]; IMPRES trial, patients with severe PAH", "result": "improvement"},
      {"measurement": "RVSP", "setting": "[2]", "result": "decreased"},
      {"measurement": "survival", "setting": "[2]", "result": "improved"},
      {"measurement": "phospho-ERK1/2", "setting": "[3]", "result": "reduction"},
      {"measurement": "migration of PASMCs", "setting": "[4]", "result": "inhibited"}
    ]}
  ]
}
